Assay results taken from patent US6306853A, “1,4-Dihydropyridine derivatives” (Nikken Chemicals Co., Ltd., priority 1998, dated 2001).
Values joined by “and” are separate entries in the source; they are usually repeats but may differ in a detail not shown here. Equal entries are not always repeated.

Key:
KB/VJ 300 cells = experiment: Degree of resistance to ADM (ratio of ADM LD50 concentrations) in multi-drug resistant KB/VJ 300 cells on combined administration of doxorubicin and test compound; type: cell-based, human; conditions: VJ-300 (resistant) cells; ADM + test compound 1 μg/ml; relative to ADM alone in KB = 1
Method: In Vitro Test of Action Suppressing Proliferation of Cancer Cells combined administration of Doxorubicin
Human rhinopharynx cancer derived KB cells (i.e., sensitive cells) and their multi-drug resistant clone KB/VJ 300 cells (i.e., resistant cells) were used as the test cells. As the incubation solutions, use was made of 10% fetal calf serum (Flow Laboratories) and Eagle MEM medium (Nissui Seiyaku) containing 0.292 mg/ml of L-glutamine (Flow Laboratories). The tests of the action for overcoming resistance to anti-cancer drugs or action for increasing the effect of the anti-cancer drug with the combined administration of the anti-cancer drug doxorubicin (i.e., adriamycin, ADM) and the test compound were performed as follows:
The test cells were suspended in incubation solutions and adjusted to a cell density of about 200 cells/ml. The cell suspensions were injected in 2 ml amounts into petri dishes and were incubated in a CO2 gas incubator (5% CO2, 95% air) at 37° C. for 24 hours. Then, 5-10 μl of a predetermined concentration of the aqueous ADM solution and a predetermined concentration of a DMSO solution of the test compound were added, then the incubation was continued for a further 6 days. After the end of the incubation, the result was immobilized with methanol, Tripan blue stained and measured for the number of colonies per dish. […]

[1] = test system: VCR resistant murine leukemia (P388/VCR) cells; experiment: In vivo overcoming of resistance in VCR resistant murine leukemia (P388/VCR) bearing mice, etoposide with compound 20 mg/kg; design: species or system CDF1 female mice; conditions: for Average days of survival / Rate of prolongation of life T/C: VP-16 3 mg/kg + compound 20 mg/kg
Method: In Vivo Test of Action Suppressing Proliferation of Cancer Cells by Combined Administration of Anti-cancer Drug Etoposide
Effect of Overcoming Resistance to an Anti-cancer Drug for VCR Resistant Murine Leukemia Cell Bearing Mice
(§1) 1.2×10^5 VCR resistant murine leukemia (P388/VCR) cells were transplanted intravenously into groups of 5-6 CDF1 female mice, then the compound of the present invention (20 mg/kg) and Etoposide (VP-16) (3 mg/kg) were administered intravenously once per day for 5 days, after dissolving them in a physiological salt solution containing a small amount of hydrochloric acid. The observation was started from the next day. The number of survival days were found and the life prolonging rate (T/C) with respect to the controls was found. The effect in overcoming resistance to an anti-cancer drug (T/V) was found by the following formula.
(§2) Effect of overcoming resistance to the anti-cancer drug (T/V) %
(§3) =[(Rate of prolongation of life using VP-16 and the present compound (T/C))/(Rate of prolongation of life using VP-16 alone (T/C))]×100

[2] = test system: thoracic aorta of the rat; experiment: Action easing KCl contraction in rat arteries; conditions: rat thoracic aorta ring, 50 mM KCl, compound 10^-6 M; read-out: Inhibitory rate of hyperpotassium contraction at 10^-6 M
Method: Action Easing KCl Contraction in Rat Arteries
The specimen was stabilized for approximately 60 minutes, then a potassium chloride solution was added to the Magnus tube to give a final concentration of 50 mM. The positive control compound or the compound of the present invention was cumulatively added to become 1×10^-6 M when the contraction reaction occurring at that time reached equilibrium. The contraction force was recorded by an FD-pickup (Nihon Koden) via a polygraph (Nihon Koden).

[3] = Acute toxicity test in mice, intraperitoneal; conditions: mouse, in vivo, ip, 7 days observation
Method: Animals used: ddY male mice (SLC Japan), 4-5 weeks old, three to five mice per group.
Test method: The compound of the present invention was suspended in 0.5% sodium carboxymethylcellulose (CMC-Na) containing 0.1% Tween 80. It was administered to the mice intraperitoneally in amounts of 250, 500 or 1000 mg/kg in groups of three to five mice. The survival of the animals was observed up until 7 days after administration and LD50 value was calculated according to a Probit method.

[4] = test system: VCR resistant murine leukemia (P388/VCR) cells; experiment: In vivo overcoming of resistance in VCR resistant murine leukemia (P388/VCR) bearing mice, etoposide with compound 10 mg/kg; design: species or system CDF1 female mice
Method: as §1, §2, §3
In Vivo Test of Action Suppressing Proliferation of Cancer Cells by Combined Administration of Anti-Cancer Drug Etoposide
The Test Example 3 was repeated using 10 mg/kg administration of the present compound and the effects of overcoming resistance to the anti-cancer drug were determined from the average days of survival.

multidrug resistance = conditions: literature statement in words; cited from earlier work
[5] = i.v. once per day for 5 days, vs control
[6] = VP-16 alone 3 mg/kg, reference = 100

Molecule | Average days of survival ([1]; i.v. once per day for 5 days) | Rate of prolongation of life T/C [1, 5] | inhibition at 1 µM [2] | other results
6-Methyl-2-[4-(2-methylimidazo[4,5-b]pyridin-1-yl)phenyl]-4-(2-phenylethyl)-1,4-dihydropyridin-3,5-dicarboxylate 3-ethylester 5-[3-(3-pyridyl)-2-propynyl]ester [Compound 51] | – | – | – | Degree of resistance for ADM, VJ-300 (KB/VJ 300 cells): 1.43
6-Methyl-2-[4-(2-methylimidazo[4,5-b]pyridin-1-yl)phenyl]-4-pentyl-1,4-dihydropyridin-3,5-dicarboxylate 3-ethylester 5-[3-(3-pyridyl)2-propynyl]ester [Compound 52] | – | – | – | Degree of resistance for ADM, VJ-300 (KB/VJ 300 cells): 1.60
CCOC(=O)C1=C(c2ccc(-n3c(C)nc4cnccc43)cc2)NC(C)=C(C(=O)OCC#Cc2cccnc2)C1C (stereo not drawn) [Compound 1, 4,6-dimethyl-2-[4-(2-methylimidazo[4,5-c]pyridin-1-yl)phenyl]-1,4-dihydropyridin-3,5-dicarboxylic acid 3-ethylester 5-[3-(3-pyridyl)-2-propynyl]ester] | 13.6 days | 148% | 0% | –
CCOC(=O)C1=C(c2ccc(-n3c(C)nc4cnccc43)cc2)NC(C)=C(C(=O)OCC#Cc2cccnc2)C1Cc1ccccc1 (stereo not drawn) [Compound 6, 4-Benzyl-6-methyl-2-[4-(2-methylimidazo[4,5-c]pyridin-1-yl)phenyl]-1,4-dihydropyridin-3,5-dicarboxylate 3-ethylester 5-[3-(3-pyridyl)-2-propynyl]ester] | 16.0 days | 174% | 7.5% | –
CCOC(=O)C1=C(c2ccc(-n3c(C)nc4cnccc43)cc2)NC(C)=C(C(=O)OCC#Cc2cccnc2)C1CCc1ccccc1 (stereo not drawn) [Compound 9, 6-Methyl-2-[4-(2-methylimidazo[4,5-c]pyridin-1-yl)phenyl]-4-(2-phenylethyl)-1,4-dihydropyridin-3,5-dicarboxylate 3-ethylester 5-[3-(3-pyridyl)-2-propynyl]ester] | 15.0 days | 163% | – | LD50 at 168 h [3]: > 1000 mg/kg
CCOC(=O)C1=C(c2ccc(-n3c(C)nc4cnccc43)cc2)NC(C)=C(C(=O)OCC#Cc2cccnc2)C1/C=C/c1ccccc1OC (stereo not drawn) [Compound 14, 4-[(E)-2-(2-Methoxyphenyl)ethenyl]-6-methyl-2-[4-(2-methylimidazo[4,5-c]pyridin-1-yl)phenyl]-1,4-dihydropyridin-3,5-dicarboxylate 3-ethylester 5-[3-(3-pyridyl)-2-propynyl]ester] | 15.7 days | 154% | 0% | –
CCOC(=O)C1=C(c2ccc(-n3c(C)nc4cnccc43)cc2)NC(C)=C(C(=O)OCC#Cc2cccnc2)C1/C=C/c1ccco1 (stereo not drawn) [Compound 16, 4-[(E)-2-(2-Furyl)ethenyl]-6-methyl-2-[4-(2-methylimidazo[4,5c]pyridin-1-yl)phenyl]1,4-dihdropyridin-3,5-dicarboxylate 3-ethylester 5-[3-(3-pyridyl)-2-propynyl]ester] | 15.0 days | 147% | 0% | –
CCOC(=O)C1=C(c2ccc(-n3c(C)nc4cnccc43)cc2)NC(C)=C(C(=O)OCC#Cc2cccnc2)C1CCc1ccsc1 (stereo not drawn) [Compound 17, 6-Methyl-2-[4-(2-methylimidazo[4,5-c]pyridin-1-yl)phenyl]-4-[2-(3-thienyl)ethyl]-1,4-dihydropyridin-3,5-dicarboxylate 3-ethylester 5-[3-(3-pyridyl)2-propynyl]ester] | 13.4 days | 146% | 0% | –
CCCCCC1C(C(=O)OC(C)C#Cc2cccnc2)=C(C)NC(c2ccc(-n3c(C)nc4cnccc43)cc2)=C1C(=O)OCC (stereo not drawn) [Compound 22, 6-Methyl-2-[4-(2-methylimidazo[4,5-c]pyridin-1-yl)phenyl]-4-pentyl-1,4-dihydropyridin-3,5-dicarboxylate 3-ethylester 5-[1-methyl-3-(3-pyridyl)-2-propynyl]ester] | 14.6 days | 159% | 0% | LD50 at 168 h [3]: > 1000 mg/kg
CCOC(=O)C1=C(c2ccc(-n3c(C)nc4cnccc43)cc2)NC(C)=C(C(=O)OC(C)C#Cc2cccnc2)C1CCc1ccccc1 (stereo not drawn) [Compound 23, 6-Methyl-2-[4-(2-methylimidazo[4,5-c]pyridin-1-yl)phenyl]-4-(2-phenylethyl)-1,4-dihydropyridin-3,5-dicarboxylate 3-ethylester 5-[1-methyl-3-(3-pyridyl)-2-propynyl]ester] | 15.8 days | 172% | – | Average days of survival ([4]; VP-16 3 mg/kg + compound 10 mg/kg): 13.0 days; Effect of overcoming resistance T/V ([4]; VP-16 3 mg/kg + compound 10 mg/kg, vs VP-16 alone): 123%; Rate of prolongation of life T/C ([4]; VP-16 3 mg/kg + compound 10 mg/kg, vs control): 125%
CCOC(=O)C1=C(c2ccc(-n3ccnc3)cc2)NC(C)=C(C(=O)OCC#Cc2cccnc2)C1/C=C/c1ccccc1 (stereo not drawn) [Compound 24, 2-[4-(1-Imidazolyl)phenyl]-6-methyl-4-[(E)-2-phenylethenyl]-1,4-dihydropyridin-3,5-dicarboxylate 3-ethylester 5-[3-(3-pyridyl)-2-propynyl]ester] | – | – | – | LD50 at 168 h [3]: > 1000 mg/kg
COc1cc([C@@H]2c3cc4c(cc3[C@@H](O[C@@H]3O[C@@H]5CO[C@@H](C)O[C@H]5[C@H](O)[C@H]3O)[C@H]3COC(=O)[C@H]23)OCO4)cc(OC)c1O [VP-16, Etoposide, reference compound] | – | – | – | Average days of survival (VP-16 alone) ([4]; VP-16 alone 3 mg/kg): 10.6 days; Effect of overcoming resistance T/V (VP-16 alone) [4, 6]: 100%; Rate of prolongation of life T/C (VP-16 alone) ([4]; VP-16 alone 3 mg/kg, vs control): 102%; Average days of survival (VP-16 alone) ([1]; VP-16 alone 3 mg/kg, i.v. once per day for 5 days): 9.5 days and 11.0 days and 10.5 days; Rate of prolongation of life T/C (VP-16 alone) ([1]; VP-16 alone 3 mg/kg, i.v. once per day for 5 days, vs control): 103% and 108% and 102%; Effect of overcoming resistance T/V (VP-16 alone) [1, 6]: 100%
COc1ccc(CCN(C)CCCC(C#N)(c2ccc(OC)c(OC)c2)C(C)C)cc1OC (stereo not drawn) [Verapamil, reference compound] | – | – | 42.3% | –
COC(=O)C1=C(C)NC(C)=C(C(=O)OCCN(C)Cc2ccccc2)C1c1cccc([N+](=O)[O-])c1 (stereo not drawn) [nicardipine, reference compound] | – | – | 100% | effect of combined administration with an anti-cancer drug on multidrug resistance (multidrug resistance): effective
